Columns and labels:
[1] = system: osteoblastic cells derived from murine calvaria; assay: Etoposide-induced apoptosis of osteoblastic cells, trypan blue uptake; assay type: cell-based; conditions: for Lowest Effective Concentration: inhibition of etoposide-induced osteoblast apoptosis, 1 hour pretreatment; for Suppression by 10^−8 M Flutamide: suppression of the anti-apoptotic effect by androgen receptor antagonist; for anti-apoptotic effect on osteoblastic cells after pretreatment with ICI182,780: test agent 10^−8 M, ICI182,780 10^−7 M, 1 h pretreatment
Description: Osteoblastic cells derived from murine calvaria were pretreated with the sterols for 1 hour before the addition of the pro-apoptotic agent, etoposide. Apoptosis was determined after 6 hours by trypan blue uptake (Jilka et al, J. Bone and Min. Res. 13:793:802, 1998). * indicates p<0.05 versus etoposide alone, by analysis of variance (ANOVA) (Student-Newman-Keuls method).
Osteoblastic cells derived from murine calvaria were pretreated for 1 hour with the pure receptor antagonist ICI182,780 (10^−7 M) before the addition of the test agents (10^−8 M). Apoptosis was induced and quantified as described in FIG. 3. * indicates p<0.05 versus etoposide alone, by ANOVA (Student-Newman-Keuls method).
In this experiment, osteoblastic cells were derived from murine calvaria and were pretreated with the sterols for 1 hour before the addition of the pro-apoptotic agent, etoposide.
In these experiments, cells were pretreated with the indicated concentrations of the various compounds for 1 hour, in the absence or presence of the androgen receptor antagonist flutamide, before the addition of the proapoptotic agent etoposide. Apoptosis was determined after 6 hours by trypan blue uptake as described in FIG. 3.

[2] = rats, intravenously; cited from earlier work
[3] = after one year of treatment; cited from earlier work
[4] = for at least four years; cited from earlier work
MLO-Y4 osteocytic cells [5] = assay: Dexamethasone-induced apoptosis of MLO-Y4 cells with PD98059; assay type: cell-based, murine; conditions: 10^−8 M; PD98059 1 hour pretreatment; dexamethasone 6 hours
Description: Apoptosis was induced by incubation with the pro-apoptotic agent dexamethasone for 6 hour and quantified as described in FIG. 3. * indicates p<0.05 versus the corresponding control group without dexamethasone, by ANOVA (Student-Newman-Keuls method).
That indeed the anti-apoptotic effect of all the compounds tested herein was mediated via activation of ERKs was established by the results of the experiments shown in FIG. 10. […] Apoptosis was induced by incubation with the pro-apoptotic agent dexamethasone for 6 hours and quantified as described in FIG. 3.

osteoclasts = conditions: increased from approximately 0.5%; cited from earlier work
[6] = system: extracellular signal regulated kinases (ERKs) 1 and 2; assay: Western blot of phosphorylated ERK1/2 in MLO-Y4 cells; assay type: cell-based, murine; conditions: for activation (phosphorylation) of ERKs: 10^−8 M, 5, 15 or 30 minutes; for ability to activate ERKs in the presence of PD98059: 10^−8 M, 5 minutes, 50 μM PD98059
Description: (§1) MLO-Y4 osteocytic cells were incubated for 25 minutes in serum -free medium. […] Cell lysates were prepared and proteins were separated by electrophoresis in polyacrylamide gels and transferred to PVDF membranes. Western blotting was performed using a specific antibody recognizing phosphorylated ERKs 1 and 2, followed by reblotting with an antibody recognizing total ERKs. Blots were developed by enhanced chemiluminescence.
as §1, with “MLO-Y4” for “MLO-Y4 osteocytic”, “serum-free medium in the presence or absence of 50 μM PD98059.” for “serum -free medium.”
as §1, with “In this experiment, MLO-Y4” for “MLO-Y4”, “serum-free” for “serum -free”, “extracellular signal regulated kinases” for “ERKs”, “extracellular signal regulated kinases.” for “ERKs.”, “chemiluminescence. […] This effect is too rapid to be accounted for by the classical mechanism of estrogen action.” for “chemiluminescence.”
as §1, with “In this experiment, MLO-Y4” for “MLO-Y4”, “serum-free medium in the presence or absence of 50 μM PD98059.” for “serum -free medium.”, “extracellular signal regulated kinases” for “ERKs”, “extracellular signal regulated kinases.” for “ERKs.”

MLO-Y4 osteocytic cells [7] = assay: Etoposide-induced apoptosis of MLO-Y4 osteocytic cells, trypan blue uptake; assay type: cell-based, murine; conditions: for antiapoptotic effect on osteocytes after pretreatment with ICI182,780: ICI182,780 10^−7 M, 1 h pretreatment; for inhibition of etoposide-induced apoptosis of osteocytic cell line: MLO-Y4, pretreated 1 h before etoposide, apoptosis after 6 h
Description: Cells were pretreated with the indicated concentrations of the compounds for 1 hour before the addition of the pro-apoptotic agent etoposide. Apoptosis was determined after 6 hour by trypan blue uptake as described in FIG. 3. * indicates p<0.05 versus etoposide alone, by ANOVA (Student-Newman-Keuls method).
MLO-Y4 cells were pretreated for 1 hour with the pure receptor antagonist ICI182,780 (10^−7 M) before the addition of the test agents (10^−8 M). Apoptosis was induced and quantified as described in FIG. 3. * indicates p<0.05 versus etoposide alone, by ANOVA (Student-Newman-Keuls method).
In this experiment, MLO-Y4 cells were pretreated with the indicated concentrations of the various compounds for 1 h before the addition of the pro-apoptotic agent, etoposide. Apoptosis was determined after 6 h by trypan blue uptake as described in FIG. 3.

[8] = target: T1, murine estrogen receptor-beta (mERβ) (Mus musculus, UniProt O08537); assay: Etoposide-induced apoptosis in HeLa cells stably transfected with mERβ; assay type: cell-based, human; conditions: 10^−8 M, 1 h; etoposide 5×10^−5 M, 6 hour
T1 construct: expressed in transfected cells
From the text: (§2) CMV promoter alone and CMV promoter-driven cDNA for mERα or mErβ were stably transfected into HeLa cells. […] Cells were trypsinized, pelleted and trypan blue positive cells enumerated.
(§3) In this experiment, instead of calvaria cells, human HeLa cells which contain undetectable, if any, estrogen receptor were used. HeLa cells were stably transfected with either a CMV promoter-driven cDNA for the murine estrogen receptor-alpha (mERα) or a CMV promoter-driven cDNA for the murine estrogen receptor-beta (mERβ). […] Cells were trypsinized, pelleted and trypan blue positive cells were enumerated.

wild type HeLa cells = assay: Etoposide-induced apoptosis in wild type HeLa cells; assay type: cell-based, human; conditions: 10^−8 M, 1 h; etoposide 5×10^−5 M, 6 hour
From the text: as §2, §3

osteoblasts = conditions: intermittent administration in mice; from 1.7-2.2%; cited from earlier work

T1 sequence (O08537 whole entry): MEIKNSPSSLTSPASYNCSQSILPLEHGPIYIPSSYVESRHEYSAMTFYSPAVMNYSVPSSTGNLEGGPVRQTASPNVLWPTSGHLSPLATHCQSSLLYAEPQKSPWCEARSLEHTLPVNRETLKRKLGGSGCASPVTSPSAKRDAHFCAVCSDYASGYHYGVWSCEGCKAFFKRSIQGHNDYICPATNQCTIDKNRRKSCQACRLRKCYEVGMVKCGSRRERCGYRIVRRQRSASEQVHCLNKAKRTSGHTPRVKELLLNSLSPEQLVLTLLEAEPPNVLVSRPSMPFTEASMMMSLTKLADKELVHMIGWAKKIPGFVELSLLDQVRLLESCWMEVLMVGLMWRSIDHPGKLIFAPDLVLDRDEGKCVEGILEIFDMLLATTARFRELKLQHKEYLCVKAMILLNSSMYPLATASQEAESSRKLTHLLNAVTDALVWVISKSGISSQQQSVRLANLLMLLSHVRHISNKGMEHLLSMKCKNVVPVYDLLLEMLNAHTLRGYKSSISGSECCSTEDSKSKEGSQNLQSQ

**Q.** Which results are given for C[C@]12CC[C@H]3[C@@H](CC=C4C[C@@H](O)CC[C@@]43C)[C@@H]1CC[C@@H]2O [5-androstene-3β-17_-diol]?
**A.** Lowest Effective Concentration [1]: 10^−8 M; Suppression by 10^−8 M Flutamide [1]: yes

**Q.** Which “Lowest Effective Concentration” value [1] does the source give for C[C@]12CCC(=O)C[C@@H]1CC[C@@H]1[C@@H]2CC[C@]2(C)[C@@H](O)CC[C@@H]12 [5-α-dihydrotestosterone] here?
**A.** Its value is 10^−9 M.

**Q.** And the “Suppression by 10^−8 M Flutamide” value [1]?
**A.** Its value is “yes”.

**Q.** For C[C@]12CC[C@H]3[C@@H](CCC4=CC(=O)CC[C@@]43C)[C@@H]1CC[C@@H]2O [Testosterone], which “Suppression by 10^−8 M Flutamide” value [1] is on record?
**A.** Its value is “yes”.

**Q.** For CC(=O)N[C@@H](CS)C(=O)O [N-acetylcysteine, acetamido-mercaptopropionic acid], which LD50 [2] is on record?
**A.** The LD50 was 1140 mg/kg.

**Q.** With C[C@]12CCC(=O)C[C@@H]1CC[C@@H]1[C@@H]2CC[C@]2(C)[C@@H](O)CC[C@@H]12 [5-β-dihydrotestosterone] as the molecule, how does the “Lowest Effective Concentration” value [1] read?
**A.** Its value is 10^−10 M.

**Q.** What about the “Suppression by 10^−8 M Flutamide” value [1] of the same molecule?
**A.** The value was “yes”.

**Q.** For CC(O)(P(=O)(O)O)P(=O)(O)O [etidronate], which “reduction of resorption depth in human iliac trabecular bone” value [3] is on record?
**A.** Its value is roughly 30%.

**Q.** Which “Suppression by 10^−8 M Flutamide” value [1] does the source give for C[C@]12CCC(=O)C=C1CC[C@@H]1[C@@H]2CC[C@]2(C)C(=O)CC[C@@H]12 [4-androstene-3,17-dione] here?
**A.** Its value is “yes”.

**Q.** Which results are given for C[C@]12CC[C@H](OS(=O)(=O)O)CC1=CC[C@@H]1[C@@H]2CC[C@]2(C)C(=O)CC[C@@H]12 [Dehydroisoandrosterone-3-sulfate (DHES), Dehydroisoandrosterone-3-sulfate]?
**A.** Lowest Effective Concentration [1]: 10^−8 M; Suppression by 10^−8 M Flutamide [1]: no*

**Q.** With [F-].[Na+] [sodium fluoride] as the molecule, how does the “increase in vertebral bone mass” value [4] read?
**A.** Its value is 10 % a year.

**Q.** Which “anti-apoptotic effect after pretreatment with PD98059” value (MLO-Y4 osteocytic cells [5]) does the source give for C[C@]12CC[C@@H]3c4ccc(O)cc4CC[C@H]3[C@@H]1CC[C@@H]2O [17β-estradiol] here?
**A.** The value was “prevented the anti-apoptotic effect”.

**Q.** And the apoptosis of osteoclasts (osteoclasts)?
**A.** Its apoptosis of osteoclasts is no more than 2.7%.

**Q.** And the “activation (phosphorylation) of ERKs” value [6]?
**A.** The value was “activated”.

**Q.** What about the “ability to activate ERKs in the presence of PD98059” value [6] of the same molecule?
**A.** Its value is “abrogated”.

**Q.** And the “antiapoptotic effect on osteocytes after pretreatment with ICI182,780” value (MLO-Y4 osteocytic cells [7])?
**A.** The value was “abrogated”.

**Q.** What about the “inhibition of etoposide-induced apoptosis of osteocytic cell line” value (MLO-Y4 osteocytic cells [7]) of the same molecule?
**A.** Its value is “dose-dependently inhibited”.

**Q.** And the “inhibition of etoposide-induced apoptosis in HeLa cells transfected with estrogen receptor β” value [8]?
**A.** Its value is “potently inhibited”.

**Q.** And the “inhibition of etoposide-induced osteoblastic cell apoptosis” value ([1]; pretreated 1 hour before etoposide, apoptosis after 6 hours by trypan blue uptake)?
**A.** Its value is “prevented apoptosis”.

**Q.** And the “anti-apoptotic effect on osteoblastic cells after pretreatment with ICI182,780” value [1]?
**A.** The value was “abrogated”.

**Q.** What about the “effect on etoposide-induced apoptosis of wild type HeLa cells” value (wild type HeLa cells) of the same molecule?
**A.** The value was “none of the three compounds had any effect”.

**Q.** Which results are given for C[C@]1(O)CC[C@H]2[C@@H]3CCC4=CC(=O)CCC4=C3C=C[C@@]21C [RU1881]?
**A.** Lowest Effective Concentration [1]: 10^−8 M; Suppression by 10^−8 M Flutamide [1]: yes

**Q.** With C[C@]12CC[C@@H]3c4ccc(O)cc4CC[C@H]3[C@@H]1CC[C@H]2O [17α-estradiol] as the molecule, how does the “anti-apoptotic effect after pretreatment with PD98059” value (MLO-Y4 osteocytic cells [5]) read?
**A.** Its value is “prevented the anti-apoptotic effect”.

**Q.** What about the “activation (phosphorylation) of ERKs” value [6] of the same molecule?
**A.** Its value is “activated”.

**Q.** What about the “ability to activate ERKs in the presence of PD98059” value [6] of the same molecule?
**A.** Its value is “abrogated”.

**Q.** What about the “antiapoptotic effect on osteocytes after pretreatment with ICI182,780” value (MLO-Y4 osteocytic cells [7]) of the same molecule?
**A.** Its value is “abrogated”.

**Q.** And the “inhibition of etoposide-induced apoptosis of osteocytic cell line” value (MLO-Y4 osteocytic cells [7])?
**A.** Its value is “dose-dependently inhibited”.

**Q.** What about the “inhibition of etoposide-induced apoptosis in HeLa cells transfected with estrogen receptor β” value [8] of the same molecule?
**A.** The value was “potently inhibited”.

**Q.** And the “anti-apoptotic effect on osteoblastic cells after pretreatment with ICI182,780” value [1]?
**A.** The value was “abrogated”.

**Q.** What about the “effect on etoposide-induced apoptosis of wild type HeLa cells” value (wild type HeLa cells) of the same molecule?
**A.** Its value is “none of the three compounds had any effect”.

B1: PTH: parathyroid hormone, agent known for its role in calcium homeostasis (protein, UniProt P01270 32-115, looked up)
Parathyroid hormone: SVSEIQLMHNLGKHLNSMERVEWLRKKLQDVHNFVALGAPLAPRDAGSQRPRKKEDNVLVESHEKSLGEADKADVNVLTKAKSQ
modifications: Parathyroid hormone
notes: parathyroid hormone, agent known for its role in calcium homeostasis
**Q.** With B1 as the molecule, how does the “prevalence of osteoblast apoptosis” value (osteoblasts) read?
**A.** The value was 0.1-0.4%.

Source: patent US20040224884A1, “Methods of screening for apoptosis-controlling agents for bone anabolic therapies and uses thereof” (priority 1998, published 2004)
